Test results as given in ChEMBL document CHEMBL3727350, “Agents and methods for treating ischemic and other diseases” (2014).
Active and inactive are the calls of the source.

What was measured:
[1] = target: Transient receptor potential cation channel subfamily M member 7 (Mus musculus) (UniProt Q923J1); test: Inhibition of TRPM7 in mouse primary neuronal cells exposed to oxygen glucose deprivation condition for 1 to 3 hrs assessed as reduction in TRPM7-mediated anoxic cell death dosed after oxygen glucose deprivation condition by propidium iodide uptake assay; conditions: Primary neuron
[2] = target: Transient receptor potential cation channel subfamily M member 7 (Mus musculus) (UniProt Q923J1); test: Inhibition of Tet-induced Flag-tagged mouse TRPM7 expressed in HEK293 cells assessed as reduction in channel currents at 0.3 to 30 uM by whole cell patch clamp assay; format: cell-based
Mus musculus [3] = test: Reduction in infarct volume in mouse model of permanent LAD coronary artery ligation at 10 to 335 ug/kg, iv administered as single dose within 15 mins of LAD occlusion by TTC staining based method; format: functional, organism-based
[4] = Inhibition of cell proliferation of human WERI cells at 10 uM incubated for 48 to 96 hrs; format: functional
[5] = target: Transient receptor potential cation channel subfamily M member 7 (Rattus norvegicus) (UniProt Q925B3); test: Inhibition of TRPM7 in rat H9C2 cells assessed as reduction in channel currents at 0.3 to 30 uM by whole cell patch clamp assay; format: cell-based
[6] = target: Transient receptor potential cation channel subfamily M member 7 (Rattus norvegicus) (UniProt Q925B3); test: Inhibition of TRPM7 in rat retinal explants exposed to oxygen glucose deprivation condition for 1 hr assessed as protection against TRPM7-mediated cell death at by propidium iodide uptake assay
[7] = target: Transient receptor potential cation channel subfamily M member 7 (Mus musculus) (UniProt Q923J1); test: Inhibition of Tet-induced Flag-tagged mouse TRPM7 expressed in HEK293 cells assessed as inhibition of channel-mediated cell death in presence of Mg2+ incubated for 24 to 48 hrs by propidium iodide uptake assay; format: cell-based; set-up: concentration or dose not given beside the values
[8] = target: Transient receptor potential cation channel subfamily M member 7 (Mus musculus) (UniProt Q923J1); test: Inhibition of TRPM7 in mouse primary neuronal cells exposed to oxygen glucose deprivation condition for 1 to 3 hrs assessed as reduction in TRPM7-mediated anoxic cell death dosed before oxygen glucose deprivation condition by propidium iodide uptake assay; conditions: Primary neuron
Mus musculus [9] = test: Reduction in dead cells following LAD restriction of heart in mouse model of permanent LAD coronary artery ligation at 10 to 100 ug/kg, iv administered as single dose within 15 mins of LAD occlusion by TUNEL assay; format: functional, organism-based
[10] = target: Transient receptor potential cation channel subfamily M member 7 (Mus musculus) (UniProt Q923J1); test: Inhibition of TRPM7 in mouse mouse primary cortical neurons exposed to 2 hrs oxygen glucose deprivation condition assessed as reduction in TRPM7-mediated anoxic cell death measured after 20 hrs by propidium iodide uptake assay; format: cell-based; conditions: Cerebral cortex neuron
Mus musculus [11] = species on record: Mus musculus; test: Inhibition of calcium channel in mouse cortical neurons assessed as effect on Ca2+ currents; format: functional
[12] = target: Glutamate NMDA receptor (Mus musculus) (UniProt P35436+Q91ZU9+Q03391+P35438+Q01097+Q01098+A2AIR5); test: Inhibition of NMDA receptor in mouse cortical neurons assessed as effect on NMDA currents; format: protein-complex assay
[13] = target: Transient receptor potential cation channel subfamily M member 7 (Mus musculus) (UniProt Q923J1); test: Inhibition of TRPM7 in mouse mouse primary cortical neurons exposed to 1 hrs oxygen glucose deprivation condition assessed as reduction in TRPM7-mediated anoxic cell death at 1.25 to 10 uM measured after 20 hrs by propidium iodide uptake assay; format: cell-based; conditions: Cerebral cortex neuron
[14] = target: Transient receptor potential cation channel subfamily M member 7 (Rattus norvegicus) (UniProt Q925B3); test: Inhibition of TRPM7 in Sprague-Dawley rat retinal explants subjected to 1 hr oxygen-glucose deprivation assessed as reduction in retinal ischemia at 5 uM
Rattus norvegicus [15] = species on record: Rattus norvegicus; test: Reduction in retinal cell death in rat model of acute glaucoma assessed as reduction in TUNEL positive cells after exposure to 1 hr high IOP at 1 uM; format: functional, organism-based
[16] = target: Transient receptor potential cation channel subfamily M member 7 (Rattus norvegicus) (UniProt Q925B3); test: Inhibition of TRPM7 in Sprague-Dawley rat retinal explants dissociated and subjected to 1 hr oxygen-glucose deprivation assessed as reduction in retinal cell death at 1 and 5 uM
Mus musculus [17] = test: Reduction in damage to heart in mouse model of myocardial infarction at 10 to 35 ug/kg; format: functional, organism-based
[18] = target: Transient receptor potential cation channel subfamily M member 7 (Rattus norvegicus) (UniProt Q925B3); test: Inhibition of TRPM7 in rat H9c2 cells assessed as protection against oxygen glucose deprivation-induced cell death at 0.05 to 5 uM pre-treated for 24 hrs before OGD; format: cell-based
[19] = target: Transient receptor potential cation channel subfamily M member 7 (Mus musculus) (UniProt Q923J1); test: Inhibition of TRPM7 in mouse AML12 cells assessed as protection against oxygen glucose deprivation-induced cell death at 0.5 to 5 uM; format: cell-based
[20] = target: Transient receptor potential cation channel subfamily M member 7 (Rattus norvegicus) (UniProt Q925B3); test: Inhibition of TRPM7 in rat H9c2 cells assessed as protection against oxygen glucose deprivation-induced cell death at 0.05 to 5 uM applied during OGD; format: cell-based
[21] = target: Transient receptor potential cation channel subfamily M member 6 (Homo sapiens) (UniProt Q9BX84); test: Inhibition of TRPM6 (unknown origin) expressed in HEK293 cells assessed as effect on agonist-induced Ca2+ changes; format: functional, cell-based
[22] = target: Transient receptor potential cation channel subfamily A member 1 (Homo sapiens) (UniProt O75762); test: Inhibition of TRPA1 ((unknown origin) expressed in HEK293 cells assessed as effect on agonist-induced Ca2+ changes; format: functional, cell-based
[23] = target: Transient receptor potential cation channel subfamily M member 7 (Rattus norvegicus) (UniProt Q925B3); test: Inhibition of TRPM7 in rat H9c2 cells assessed as protection against oxygen glucose deprivation-induced cell death at 0.05 to 5 uM pre-treated for 24 hrs before OGD in presence of 1 uM nifedipine; format: cell-based
Mus musculus [24] = species on record: Mus musculus; test: Inhibition of sodium channel in mouse cortical neurons assessed as effect on Na+ currents
[25] = target: Transient receptor potential cation channel subfamily M member 7 (Mus musculus) (UniProt Q923J1); test: Inhibition of Tet-induced Flag-tagged mouse TRPM7 expressed in HEK293 cells assessed as reduction in channel currents at 2 mM using compound applied intracellularly by whole cell patch clamp assay; format: cell-based
Mus musculus [26] = test: Toxicity in mouse up to 150 uM, iv; format: organism-based; conditions: in vivo
[27] = target: Transient receptor potential cation channel subfamily M member 7 (Rattus norvegicus) (UniProt Q925B3); test: Inhibition of TRPM7 in rat H9C2 cells exposed to 6 hrs oxygen glucose deprivation condition followed by 2 hrs recovery assessed as reduction in TRPM7-mediated anoxic cell death at 0.05 to 5 uM by propidium iodide uptake assay; format: cell-based
[28] = target: Protein XNDC1N (Homo sapiens) (UniProt Q6ZNB5); test: Inhibition of TRPC2 (unknown origin) expressed in HEK293 cells assessed as effect on agonist-induced Ca2+ changes; format: functional, cell-based
[29] = target: Transient receptor potential cation channel subfamily M member 2 (Homo sapiens) (UniProt O94759); test: Inhibition of TRPM2 (unknown origin) expressed in HEK293 cells assessed as effect on agonist-induced Ca2+ changes; format: functional, cell-based
[30] = target: Transient receptor potential cation channel subfamily V member 1 (Homo sapiens) (UniProt Q8NER1); test: Inhibition of TRPV1 (unknown origin) expressed in HEK293 cells assessed as effect on agonist-induced Ca2+ changes; format: functional, cell-based
[31] = target: Transient receptor potential cation channel subfamily M member 4 (Homo sapiens) (UniProt Q8TD43); test: Inhibition of TRPM4 (unknown origin) expressed in HEK293 cells assessed as effect on agonist-induced Ca2+ changes; format: functional, cell-based
[32] = target: Glutamate receptor ionotropic, AMPA (Mus musculus) (UniProt P23819+P23818+Q9Z2W8+Q9Z2W9); test: Inhibition of AMPA receptor in mouse cortical neurons assessed as effect on AMPA currents; format: protein-complex assay
[33] = target: Transient receptor potential cation channel subfamily M member 7 (Rattus norvegicus) (UniProt Q925B3); test: Inhibition of TRPM7 in rat H9C2 cells exposed to oxygen glucose deprivation condition for 1 to 6 hrs assessed as reduction in TRPM7-mediated anoxic cell death in presence of 1 uM nifedipine by propidium iodide uptake assay; format: cell-based
Mus musculus [34] = species on record: Mus musculus; test: Inhibition of potassium channel in mouse cortical neurons assessed as reduction in potassium currents at -10mV membrane potential
Rattus norvegicus [35] = test: Analgesic activity in iv dosed rat model of formalin-induced inflammatory pain assessed reduction in formalin-induced phase-2 pain flinches; format: functional, organism-based
[36] = target: Transient receptor potential cation channel subfamily M member 7 (Rattus norvegicus) (UniProt Q925B3); test: Inhibition of TRPM7 in rat H9c2 cells assessed as protection against oxygen glucose deprivation-induced cell death at 0.05 to 5 uM in presence of 1 uM nifedipine; format: cell-based
[37] = target: Transient receptor potential cation channel subfamily M member 7 (Mus musculus) (UniProt Q923J1); test: Inhibition of Tet-induced Flag-tagged mouse TRPM7 expressed in HEK293 cells assessed as reduction in channel currents at 2 mM using compound applied extracellularly by whole cell patch clamp assay; format: cell-based
[38] = target: Transient receptor potential cation channel subfamily M member 7 (Rattus norvegicus) (UniProt Q925B3); test: Inhibition of TRPM7 in cultured rat retinal ganglion cells exposed to oxygen glucose deprivation condition for 3 hrs assessed as protection against TRPM7-mediated cell death at by propidium iodide uptake assay; set-up: scale not given: the % may be the effect or the level left
[39] = target: Transient receptor potential cation channel subfamily M member 7 (Rattus norvegicus) (UniProt Q925B3); test: Inhibition of TRPM7 in rat H9c2 cells assessed as protection against oxygen glucose deprivation-induced cell death at 0.05 to 5 uM; format: cell-based
Rattus norvegicus [40] = test: Analgesic activity in iv dosed rat model of formalin-induced inflammatory pain assessed reduction in formalin-induced phase-1 pain flinches; format: functional, organism-based

Sequence of Transient receptor potential cation channel subfamily M member 7 (Mus musculus) (Q923J1 whole entry): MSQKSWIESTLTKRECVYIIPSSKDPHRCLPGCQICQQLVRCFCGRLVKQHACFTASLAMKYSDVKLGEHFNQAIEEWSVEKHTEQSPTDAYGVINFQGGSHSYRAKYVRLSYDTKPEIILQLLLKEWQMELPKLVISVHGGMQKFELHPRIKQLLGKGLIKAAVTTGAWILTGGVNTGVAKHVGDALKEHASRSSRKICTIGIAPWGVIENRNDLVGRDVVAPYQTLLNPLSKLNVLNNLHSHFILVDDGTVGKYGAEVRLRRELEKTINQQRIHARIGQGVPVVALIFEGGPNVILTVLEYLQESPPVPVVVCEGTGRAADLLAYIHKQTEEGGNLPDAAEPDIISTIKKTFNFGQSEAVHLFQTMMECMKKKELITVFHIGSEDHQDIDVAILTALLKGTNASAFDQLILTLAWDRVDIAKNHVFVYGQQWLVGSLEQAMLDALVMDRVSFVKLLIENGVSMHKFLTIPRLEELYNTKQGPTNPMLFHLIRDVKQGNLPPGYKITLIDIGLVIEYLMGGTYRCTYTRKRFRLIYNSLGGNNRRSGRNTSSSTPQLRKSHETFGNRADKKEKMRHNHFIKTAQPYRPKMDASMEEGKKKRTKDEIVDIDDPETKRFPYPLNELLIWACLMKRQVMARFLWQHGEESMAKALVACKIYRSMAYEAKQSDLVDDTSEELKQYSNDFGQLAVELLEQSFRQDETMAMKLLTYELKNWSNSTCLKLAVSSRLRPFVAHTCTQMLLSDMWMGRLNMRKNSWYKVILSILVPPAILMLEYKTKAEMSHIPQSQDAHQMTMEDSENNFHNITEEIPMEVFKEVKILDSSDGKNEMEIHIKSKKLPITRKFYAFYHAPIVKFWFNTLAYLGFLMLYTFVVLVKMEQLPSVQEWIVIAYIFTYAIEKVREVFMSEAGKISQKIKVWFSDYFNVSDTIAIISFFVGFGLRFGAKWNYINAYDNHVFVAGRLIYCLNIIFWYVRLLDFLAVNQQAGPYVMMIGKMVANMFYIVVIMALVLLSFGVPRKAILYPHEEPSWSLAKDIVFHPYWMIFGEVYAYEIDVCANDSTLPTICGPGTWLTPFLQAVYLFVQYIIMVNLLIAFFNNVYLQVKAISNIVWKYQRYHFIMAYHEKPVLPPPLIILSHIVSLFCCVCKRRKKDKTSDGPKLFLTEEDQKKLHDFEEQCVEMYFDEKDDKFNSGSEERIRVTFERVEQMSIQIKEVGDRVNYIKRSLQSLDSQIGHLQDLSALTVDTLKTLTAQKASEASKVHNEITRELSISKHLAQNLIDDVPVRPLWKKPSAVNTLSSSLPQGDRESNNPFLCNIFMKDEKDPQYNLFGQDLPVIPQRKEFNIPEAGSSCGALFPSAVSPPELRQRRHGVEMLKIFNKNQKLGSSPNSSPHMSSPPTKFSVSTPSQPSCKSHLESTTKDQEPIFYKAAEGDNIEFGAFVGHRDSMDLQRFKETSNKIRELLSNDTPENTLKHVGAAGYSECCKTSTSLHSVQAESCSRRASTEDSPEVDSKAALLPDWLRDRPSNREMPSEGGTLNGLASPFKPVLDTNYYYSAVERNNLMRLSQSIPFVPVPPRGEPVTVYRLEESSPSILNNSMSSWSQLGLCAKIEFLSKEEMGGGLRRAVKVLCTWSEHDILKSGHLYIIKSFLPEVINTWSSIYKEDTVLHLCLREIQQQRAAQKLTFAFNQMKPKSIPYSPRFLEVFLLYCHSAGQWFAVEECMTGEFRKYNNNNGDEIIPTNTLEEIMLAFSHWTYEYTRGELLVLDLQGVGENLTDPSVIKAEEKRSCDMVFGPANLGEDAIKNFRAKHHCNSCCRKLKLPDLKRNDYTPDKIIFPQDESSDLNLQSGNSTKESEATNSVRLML
Sequence of Transient receptor potential cation channel subfamily M member 7 (Rattus norvegicus) (Q925B3 whole entry): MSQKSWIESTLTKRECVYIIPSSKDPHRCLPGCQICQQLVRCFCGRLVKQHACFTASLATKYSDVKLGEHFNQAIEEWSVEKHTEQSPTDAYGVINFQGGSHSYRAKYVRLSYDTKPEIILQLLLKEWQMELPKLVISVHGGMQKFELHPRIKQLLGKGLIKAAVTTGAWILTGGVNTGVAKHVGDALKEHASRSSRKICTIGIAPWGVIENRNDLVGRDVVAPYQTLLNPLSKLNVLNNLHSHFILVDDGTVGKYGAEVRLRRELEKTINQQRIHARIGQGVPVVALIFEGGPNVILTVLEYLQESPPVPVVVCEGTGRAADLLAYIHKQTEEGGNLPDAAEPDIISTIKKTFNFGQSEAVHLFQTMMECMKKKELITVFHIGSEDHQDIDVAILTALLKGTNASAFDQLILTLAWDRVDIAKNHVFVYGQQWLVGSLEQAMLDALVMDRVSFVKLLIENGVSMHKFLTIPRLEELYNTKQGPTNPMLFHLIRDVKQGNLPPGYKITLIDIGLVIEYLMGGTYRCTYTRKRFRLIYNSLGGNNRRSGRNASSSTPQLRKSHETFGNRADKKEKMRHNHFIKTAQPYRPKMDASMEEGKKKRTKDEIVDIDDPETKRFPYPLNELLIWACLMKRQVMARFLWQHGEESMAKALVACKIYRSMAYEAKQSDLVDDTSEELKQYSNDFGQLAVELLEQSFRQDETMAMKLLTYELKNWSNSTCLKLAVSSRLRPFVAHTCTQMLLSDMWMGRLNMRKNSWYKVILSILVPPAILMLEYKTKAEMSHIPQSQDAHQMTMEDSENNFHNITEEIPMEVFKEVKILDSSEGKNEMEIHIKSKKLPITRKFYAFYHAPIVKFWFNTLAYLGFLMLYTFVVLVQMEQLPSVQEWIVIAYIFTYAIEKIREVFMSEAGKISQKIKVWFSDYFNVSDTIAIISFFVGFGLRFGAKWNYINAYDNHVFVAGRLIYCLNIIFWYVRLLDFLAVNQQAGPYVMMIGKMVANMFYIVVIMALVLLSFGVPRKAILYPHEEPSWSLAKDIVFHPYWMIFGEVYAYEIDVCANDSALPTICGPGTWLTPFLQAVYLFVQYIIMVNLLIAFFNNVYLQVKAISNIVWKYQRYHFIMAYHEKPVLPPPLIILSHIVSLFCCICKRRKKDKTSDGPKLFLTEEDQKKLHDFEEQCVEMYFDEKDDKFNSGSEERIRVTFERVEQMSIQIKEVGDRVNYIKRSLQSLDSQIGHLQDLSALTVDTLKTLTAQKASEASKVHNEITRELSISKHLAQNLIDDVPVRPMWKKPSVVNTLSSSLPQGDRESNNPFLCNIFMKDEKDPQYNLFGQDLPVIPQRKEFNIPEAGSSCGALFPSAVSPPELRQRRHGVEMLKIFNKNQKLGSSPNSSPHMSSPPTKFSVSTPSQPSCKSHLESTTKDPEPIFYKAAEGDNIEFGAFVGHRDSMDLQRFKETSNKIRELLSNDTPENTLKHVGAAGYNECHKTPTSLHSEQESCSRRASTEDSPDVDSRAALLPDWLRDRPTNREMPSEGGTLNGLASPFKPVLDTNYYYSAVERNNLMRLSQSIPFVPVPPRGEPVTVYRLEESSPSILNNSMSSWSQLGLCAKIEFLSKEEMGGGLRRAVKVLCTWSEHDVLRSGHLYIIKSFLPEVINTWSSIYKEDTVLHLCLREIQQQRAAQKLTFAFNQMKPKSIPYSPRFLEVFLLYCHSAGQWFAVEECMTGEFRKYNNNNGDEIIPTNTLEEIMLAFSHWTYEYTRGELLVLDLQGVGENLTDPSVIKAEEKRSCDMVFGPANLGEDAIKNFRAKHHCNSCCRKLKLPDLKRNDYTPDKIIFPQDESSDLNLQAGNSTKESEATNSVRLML
Sequence of Protein XNDC1N (Homo sapiens) (Q6ZNB5 whole entry): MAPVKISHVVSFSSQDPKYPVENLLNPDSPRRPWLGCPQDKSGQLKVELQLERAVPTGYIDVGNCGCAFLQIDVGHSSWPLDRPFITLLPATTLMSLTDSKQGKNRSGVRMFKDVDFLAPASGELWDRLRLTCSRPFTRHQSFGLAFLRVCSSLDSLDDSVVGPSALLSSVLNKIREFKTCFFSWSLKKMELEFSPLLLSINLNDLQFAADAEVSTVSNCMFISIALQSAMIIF
Sequence of Transient receptor potential cation channel subfamily V member 1 (Homo sapiens) (Q8NER1 whole entry): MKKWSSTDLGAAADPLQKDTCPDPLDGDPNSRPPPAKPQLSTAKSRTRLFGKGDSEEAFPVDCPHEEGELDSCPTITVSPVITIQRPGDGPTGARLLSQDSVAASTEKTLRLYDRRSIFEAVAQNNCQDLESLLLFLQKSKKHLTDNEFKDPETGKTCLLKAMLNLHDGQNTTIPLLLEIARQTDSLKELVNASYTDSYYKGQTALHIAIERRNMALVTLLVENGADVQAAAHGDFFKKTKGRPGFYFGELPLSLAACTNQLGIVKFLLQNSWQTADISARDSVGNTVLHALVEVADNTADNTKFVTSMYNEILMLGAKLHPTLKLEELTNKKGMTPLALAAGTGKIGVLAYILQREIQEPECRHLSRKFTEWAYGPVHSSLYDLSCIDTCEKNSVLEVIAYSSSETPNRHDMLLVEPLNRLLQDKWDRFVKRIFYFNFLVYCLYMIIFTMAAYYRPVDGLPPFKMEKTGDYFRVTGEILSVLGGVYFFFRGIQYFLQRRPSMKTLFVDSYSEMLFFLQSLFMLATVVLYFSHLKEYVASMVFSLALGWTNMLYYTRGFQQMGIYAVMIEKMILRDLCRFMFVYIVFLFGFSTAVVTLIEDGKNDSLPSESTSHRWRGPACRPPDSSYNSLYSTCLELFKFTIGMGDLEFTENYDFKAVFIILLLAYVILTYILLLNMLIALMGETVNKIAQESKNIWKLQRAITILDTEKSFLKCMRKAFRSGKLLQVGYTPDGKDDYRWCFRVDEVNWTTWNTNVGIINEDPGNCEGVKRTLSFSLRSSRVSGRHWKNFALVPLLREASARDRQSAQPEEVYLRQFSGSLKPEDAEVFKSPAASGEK

Cc1c(Cc2ccc(Cl)c(Cl)c2)c(=O)oc2cc(O)ccc12
Non-toxic: Activity (Mus musculus [26])
> 20%: inhibition at 10 µM [4]
inactive: inhibition (Mus musculus [11]) | inhibition [12] | inhibition [21] | inhibition [22] | inhibition (Mus musculus [24]) | inhibition [25] | inhibition [28] | inhibition [29] | inhibition [30] | inhibition [31] | inhibition [32] | Activity (Rattus norvegicus [40])
active: inhibition [1] | inhibition [2] | Activity (Mus musculus [3]) | inhibition [5] | inhibition [6] | inhibition [7] | inhibition [8] | Activity (Mus musculus [9]) | inhibition [10] | inhibition [13] | inhibition [14] | Activity (Rattus norvegicus [15]) | inhibition [16] | Activity (Mus musculus [17]) | inhibition [18] | inhibition [19] | inhibition [20] | inhibition [23] | inhibition [27] | inhibition [33] | Activity (Rattus norvegicus [35]) | inhibition [36] | inhibition [37] | inhibition [39]
66%: Activity [38]
20%: inhibition (Mus musculus [34])
